Laboratory results as given in patent US20220289691A1, “5-AMINO-SUBSTITUTED PYRAZOLES AND TRIAZOLES AS PEST CONTROL AGENTS” (Bayer Aktiengesellschaft, priority 2019, published 2022).
Read-outs that look alike come from different tables or passages of the source.

Key:
[1] = system: Diabrotica balteata; experiment: Diabrotica balteata spray test; assay type: in vivo; conditions: 168 h, read-out: efficacy (wheat plant growth); for pest or weed control at 125 g/ha: 125 g/ha (=40 μg/cavity); for pest or weed control at 500 g/ha: 500 g/ha (=160 μg/cavity)
Description: Diabrotica balteata—Spray Test Solvent: 78 parts by weight of acetone • • 1.5 parts by weight of dimethylformamide Emulsifier: alkylaryl polyglycol ether
(§1) To produce a suitable active compound formulation, 1 part by weight of active compound is dissolved using the stated parts by weight of solvent and made up with water containing an emulsifier concentration of 1000 ppm until the desired concentration is attained. To produce further test concentrations, the formulation is diluted with emulsifier-containing water.
Pre-swollen wheat grains (Triticum aestivum) are incubated in a multiwell plate filled with agar and a little water for one day (5 seed grains per cavity). The germinated wheat grains are sprayed with an active compound formulation of the desired concentration. Subsequently, each cavity is infected with 10-20 beetle larvae of Diabrotica balteata.
After 7 days, the efficacy in % is determined. 100% means that all wheat plants have grown as in the untreated, uninfected control; 0% means that no wheat plant has grown.

[2] = system: Spodoptera frugiperda; experiment: Spodoptera frugiperda spray test; assay type: in vivo; conditions: foliar, 168 h, maize leaf discs, after 7 days, read-out: efficacy (caterpillars killed)
Description: Spodoptera frugiperda—Spray Test Solvent: 78.0 parts by weight of acetone • • 1.5 parts by weight of dimethylformamide Emulsifier: alkylaryl polyglycol ether
as §1
Leaf discs of maize (Zea mays) are sprayed with an active compound formulation of the desired concentration and, after drying, populated with caterpillars of the fall armyworm (Spodoptera frugiperda).
After 7 days, the efficacy in % is determined. 100% means that all the caterpillars have been killed; 0% means that no caterpillar has been killed.

[3] = 100 g/ha (=32 μg/cavity), beetle larvae on wheat, after 7 days
[4] = beetle larvae on wheat, after 7 days

SMILES | pest or weed control at 100 g/ha [1, 3] | pest or weed control at 100 g/ha [2] | pest or weed control at 125 g/ha [1, 4] | pest or weed control at 500 g/ha [1, 4] | pest or weed control at 100 g/ha ([1]; in Triticum aestivum) | pest or weed control at 500 g/ha ([2]; 500 g/ha)
CNc1nc(-c2ccc(C=NN3CCCSC3=Nc3ccccc3C(C)C)cc2)nn1-c1ccc(OC(F)(F)C(F)(F)F)cc1 [Compound I-125, 3-{4-[({2-[(2-isopropylphenyl)imino]-1,3-thiazinan-3-yl}imino)methyl]phenyl}-N-methyl-1-[4-(pentafluoroethoxy)phenyl]-1H-1,2,4-triazol-5-amine] | 100% | 100% |  |  |  | 
COCCNc1nc(-c2ccc(C=NNC(=S)Nc3ccccc3C(C)C)cc2)nn1-c1ccc(OC(F)(F)F)cc1 [Compound I-072] | 100% | 100% |  |  |  | 
CNc1nc(-c2c(F)cc(C=NN=C3SCC(=O)N3c3ccccc3C(C)C)cc2F)nn1-c1ccc(OC(F)(F)F)cc1 [Compound I-122] | 100% | 100% |  |  |  | 
CNc1nc(-c2ccc(C=NN=C3SCC(=O)N3c3ccccc3C(C)C)cc2C#N)nn1-c1ccc(OC(F)(F)F)cc1 [Compound I-124] | 100% | 100% |  |  |  | 
CCNc1nc(-c2ccc(NC(=O)N=C3SCC(=O)N3c3ccccc3C(C)C)cc2)nn1-c1ccc(OC(F)(F)F)cc1 [Compound I-042] | 100% | 100% |  |  |  | 
CNc1nc(-c2ccc(C=NN3CCCSC3=Nc3ccccc3C(C)C)cc2)nn1-c1ccc(OC(F)(F)F)cc1 [Compound I-102] | 100% | 100% |  |  |  | 
CC(=O)NCCNc1nc(-c2ccc(NC(=O)N=C3SCC(=O)N3c3ccccc3C(C)C)cc2)nn1-c1ccc(OC(F)(F)F)cc1 [Compound I-033] |  | 100% | 100% | 100% |  | 
CNc1nc(-c2ccc(C=NN=C3SCCCN3c3ccccc3C(C)C)cc2)nn1-c1ccc(OC(F)(F)C(F)(F)F)cc1 [Compound I-126, 3-[4-({[3-(2-isopropylphenyl)-1,3-thiazinan-2-yliden]hydrazono}methyl)phenyl]-N-methyl-1-[4-(pentafluoroethoxy)phenyl]-1H-1,2,4-triazol-5-amine] | 100% | 100% |  |  |  | 
COCCNc1nc(-c2ccc(NC(=O)N=C3SCC(=O)N3c3ccccc3C(C)C)cc2)nn1-c1ccc(OC(F)(F)F)cc1 [Compound I-080] | 100% | 100% |  |  |  | 
CNc1nc(-c2ccc(/C=N/NC(=S)Nc3ccccc3C(C)C)c(Cl)c2)nn1-c1ccc(OC(F)(F)F)cc1 [Compound I-114] | 100% | 100% |  |  |  | 
CNc1nc(-c2ccc(C=NN=C3SCCN3c3ccccc3C(C)C)cc2)nn1-c1ccc(OC(F)(F)F)cc1 [Compound I-091] | 100% | 83% |  |  |  | 
CC(C)c1ccccc1NC(=S)NN=Cc1ccc(-c2nc(NC3CCOC3)n(-c3ccc(OC(F)(F)F)cc3)n2)cc1 (stereo not drawn) [Compound I-068] | 100% | 100% |  | 100% |  | 
CNc1nc(-c2ccc(C=NN=C3SCC(=O)N3c3ccccc3C(C)C)cc2)nn1-c1ccc(OC(F)(F)C(F)(F)F)cc1 [Compound I-064] | 100% | 100% |  | 100% |  | 
CC(C)c1ccccc1NC(=S)NN=Cc1ccc(-c2nc(NS(=O)(=O)C3CC3)n(-c3ccc(OC(F)(F)F)cc3)n2)cc1 [Compound I-023] |  | 100% | 100% | 100% |  | 
CNc1nc(-c2ccc(C=NN=C3SCCC(=O)N3c3ccccc3C(C)C)cc2)nn1-c1ccc(OC(F)(F)F)cc1 [Compound I-113] | 100% | 100% |  |  |  | 
CC(C)c1ccccc1NC(=S)NN=Cc1ccc(-c2nc(N)n(-c3ccc(OC(F)(F)C(F)(F)F)cc3)n2)cc1 [Compound I-066] | 100% | 100% |  | 100% |  | 
CC(C)c1ccccc1NC(=S)NN=Cc1ccc(-c2nc(NCCC#N)n(-c3ccc(OC(F)(F)F)cc3)n2)cc1 [Compound I-094] | 100% | 100% |  |  |  | 
CCOC(=O)Nc1nc(-c2ccc(NC(=O)N=C3SCC(=O)N3c3ccccc3C(C)C)cc2)nn1-c1ccc(OC(F)(F)F)cc1 [Compound I-116] |  | 100% |  |  | 100% | 
CNc1cc(-c2ccc(C=NN=C3SCC(=O)N3c3ccccc3C(C)C)cc2)nn1-c1ccc(OC(F)(F)F)cc1 [Compound I-106] | 100% | 100% |  |  |  | 

SMILES | pest or weed control at 100 g/ha [1, 3] | pest or weed control at 100 g/ha [2] | pest or weed control at 125 g/ha [1, 4] | pest or weed control at 500 g/ha [1, 4] | pest or weed control at 100 g/ha ([1]; in Triticum aestivum) | pest or weed control at 500 g/ha ([2]; 500 g/ha)
CNc1nc(-c2ccc(C=NN=C3SCC(=O)N3c3ccccc3C(C)C)cc2)nn1-c1ccc(OC(F)(F)F)cc1 [Compound I-024] |  | 100% | 100% | 100% |  | 
CC(C)c1ccccc1NC(=S)NN=Cc1ccc(-c2nc(NCCS(C)(=O)=O)n(-c3ccc(OC(F)(F)F)cc3)n2)cc1 [Compound I-093] | 100% | 100% |  |  |  | 
CC(C)c1ccccc1NC(=S)NN=Cc1ccc(-c2nc(NC3CSC3)n(-c3ccc(OC(F)(F)C(F)(F)F)cc3)n2)cc1 [Compound I-100] | 100% | 100% |  |  |  | 
CC(=O)Nc1cc(-c2ccc(C=NN=C3SCC(=O)N3c3ccccc3C(C)C)cc2)nn1-c1ccc(OC(F)(F)F)cc1 [Compound I-039] | 80% | 100% |  |  |  | 
CNc1nc(-c2ccc(C=NN=C3SCC(=O)N3c3ccccc3C(C)C)nc2)nn1-c1ccc(OC(F)(F)F)cc1 [Compound I-118] | 100% | 100% |  |  |  | 
C=CCNc1nc(-c2ccc(NC(=O)N=C3SCC(=O)N3c3ccccc3C(C)C)cc2)nn1-c1ccc(OC(F)(F)F)cc1 [Compound I-086] | 100% | 100% |  |  |  | 
C=CCNc1nc(-c2ccc(C=NNC(=S)Nc3ccccc3C(C)C)cc2)nn1-c1ccc(OC(F)(F)F)cc1 [Compound I-071] | 100% | 100% |  |  |  | 
CNc1nc(-c2ccc(C=NN=C3SC(C)C(=O)N3c3ccccc3C(C)C)cc2)nn1-c1ccc(OC(F)(F)F)cc1 (stereo not drawn) [Compound I-098] | 100% | 100% |  |  |  | 
CNc1nc(-c2ccc(C=NN=c3scc(C)n3-c3ccccc3C(C)C)cc2)nn1-c1ccc(OC(F)(F)C(F)(F)F)cc1 [Compound I-127] | 100% | 100% |  |  |  | 
CC(C)c1ccccc1N1C(=O)CSC1=NC(=O)Nc1ccc(-c2nc(NC3CCOC3)n(-c3ccc(OC(F)(F)F)cc3)n2)cc1 (stereo not drawn) [Compound I-045] | 100% | 100% |  | 100% |  | 100%
CC(C)Nc1nc(-c2ccc(NC(=O)N=C3SCC(=O)N3c3ccccc3C(C)C)cc2)nn1-c1ccc(OC(F)(F)F)cc1 [Compound I-043] | 100% | 100% |  | 100% |  | 
CC(C)c1ccccc1NC(=S)NN=Cc1ccc(-c2nc(N3CCOCC3)n(-c3ccc(OC(F)(F)F)cc3)n2)cc1 [Compound I-019] |  | 100% | 100% | 100% |  | 
CON(C)c1nc(-c2ccc(NC(=O)N=C3SCC(=O)N3c3ccccc3C(C)C)cc2)nn1-c1ccc(OC(F)(F)F)cc1 [Compound I-046] | 100% | 100% |  | 100% |  | 
CC(C)c1ccccc1N1C(=O)CSC1=NN=Cc1ccc(-c2nc(N)n(-c3ccc(OC(F)(F)C(F)(F)F)cc3)n2)cc1 [Compound I-065] | 100% | 100% |  | 100% |  | 
CCOCCNc1nc(-c2ccc(NC(=O)N=C3SCC(=O)N3c3ccccc3C(C)C)cc2)nn1-c1ccc(OC(F)(F)F)cc1 [Compound I-044] | 80% | 100% |  | 80% |  | 
CC(C)c1ccccc1N1C(=O)CSC1=NC(=O)Nc1ccc(-c2nc(NC(=O)C(F)F)n(-c3ccc(OC(F)(F)F)cc3)n2)cc1 [Compound I-038] | 80% | 100% |  | 100% |  | 
CCNc1nc(-c2ccc(C=NNC(=S)Nc3ccccc3C(C)C)cc2)nn1-c1ccc(OC(F)(F)F)cc1 [Compound I-050] | 100% | 100% |  | 100% |  | 
CNc1nc(-c2ccc(C=NNC(=S)Nc3ccccc3C(C)C)cc2)nn1-c1ccc(OC(F)(F)C(F)(F)F)cc1 [Compound I-067] | 100% | 100% |  | 100% |  | 
